Measurements as given in US20100204277A1, “Compositions and Methods for Controlling Infestation” (HATCHTECH PTY LTD., priority 2007, published 2010).
Where two headings read alike, the source gives them in different places. Non-standard residues stand in square brackets, D forms with d. Residues, ends and D or L forms follow the SMILES beside them. *: point of attachment. Sta = CC(C)C[C@H](N)[C@@H](O)CC(=O)O; Isovaleryl = CC(C)CC(=O)*

Legend:
[1] = tested on: proteases in louse egg shell washings (ESW); assay: Gelatine substrate SDS-PAGE of louse egg shell washings incubated with protease inhibitors; format: biochemical, Pediculus humanus humanus; settings: gelatine SDS-PAGE strips; EDTA 10 mM, 1,10-phenanthroline 10 mM, PMSF 5 mM, E-64 10 μM, Pepstatin 5 μM; 3 hrs at 37° C.
Description: Within 12 hours of hatching 50 body lice eggs (Pediculus humanus humanus) were removed from the hair and placed in a 1 mL eppendorf tube. 20 μL of distilled water was added to the unhatched eggs and the preparation incubated for 30 minutes at 32° C. The 20 μL was recovered, freeze dried and stored at −70° C. This sample was referred to as sample 1. A number of other samples were also collected as described. Sample 2 was collected by removing the unhatched louse eggs from four hairs that were approximately 3 cm long, cutting the hair into 0.5 cm lengths, and placing them into a microfuge tube containing 20 μl of distilled water and incubating at 32° C. for 30 minutes. Sample 3 was collected as for sample 2, but the hair was placed in a tube containing 10 mL of 1% sodium hypochlorite for 1 minute followed by five 1 minute washes in 25 mL of distilled water to remove the sodium hypochlorite before being incubated in a microfuge tube containing 20 μl of distilled water and incubated as for Sample 2. Sample 4 was collected from unhatched eggs which were removed from the hair and washed with 1% sodium hypochlorite and incubated in 20 μl of distilled water in the same manner as the hair in Sample 3. Finally, Sample 5 was collected from eggs that were within 24 hrs of hatching which were washed with 1% sodium hypochlorite, then returned to the incubator at 32° C. until they hatched, the empty egg shells collected 0-2 hrs after egg-hatching, placed in a 1 mL microfuge tube containing 20 μl of distilled water and incubated as for Samples 1-4. For all samples 1-5 the 20 μl of fluid was recovered, freeze-dried and stored at −70° C. The washings recovered from these freshly hatched egg shells are referred to as egg-shell-washings (ESWs). In order to look for the presence of proteases present in these different samples, the freeze-dried samples were resuspended in 15 μL of non-reducing SDS sample buffer, centrifuged at 10,000 g for 2 minutes and the entire 15 μL loaded on to 10% gelatine substrate SDS-PAGE gels. Gels were run at 4° C. for 10 minutes at 10 mA followed by a further 25 minutes at 15 mA per gel. They were then incubated for 2×20 minutes in a 2.5% Triton-X 100 solution followed by a three hour incubation in 0.1M Tris/HCl containing 1 mM CaCl2 pH 8.0. Activity was detected as clear areas on the gel the result of protease activity degrading the gelatine within the gel.
Protease activity in the ESWs from louse eggs was also examined using two-dimensional gel electrophoresis. It was necessary to collect large numbers of freshly hatched egg shells. Following egglaying onto pieces of cloth, adult female lice were removed and the cloth with the eggs washed with 1% sodium hypochlorite as for collection of ESWs. The eggs were then returned to the incubator and permitted to hatch. Typically 100 to 500 hatched egg shells were collected (0-2 hours post hatching), placed in a microfuge tube containing 200 μl of distilled water, incubated and sample treated as described above. For analysis, ESWs were resuspended in rehydration buffer (8 M Urea, 2% 3-[(3-cholamidopropyl) dimethylammonio]-1-propanesulfonate 2% Immobilised pH gradient buffer 3-10 (Amersham Phamacia Biotech, Uppsala, Sweden)) and used to rehydrate 7 cm Immobiline Dry strips pH 3-10 (Amersham Bioscience) overnight. Strips were transferred to the Multiphor II (Pharmacia, Sweden) apparatus, electrophoresed in the first dimension at 200 V for 1 min, increasing to 3,500 V over the next 90 min followed by 65 min at 3,500 V, equilibrated (6 M urea, 30% glycerol, 50 mM Tris pH 8.8 and 2% SDS) and then run on a 10% SDS-PAGE gel containing 0.1% gelatin for the second dimension. The gel was then run and developed as previously described.
10% SDS-PAGE gelatine substrate gels were loaded with freeze dried egg shell washings from 100 lice eggs that had been resuspended in 50 μL of non-reducing sample buffer with samples run at 10 μL per lane. […]

Plutella xylostella eggs = assay: Glass house ovicidal test, Plutella eggs on cabbage plants; format: in vivo; settings: 10 eggs per plant
Source text: A number of treatments and replicates were set up in the glass house using young cabbage plants that were at the 4-5 leaf stage. Plutella xylostella eggs were laid by gravid females on the leaves such that each plant contained 10 eggs. The plants were sprayed with a commercial ovicide or using the compounds 5,5′-dimethyl-2,2′-dipyridyl and 5,5′ diethyl-2,2′-dipyridyl in a formulation at the rate of 200 L/Ha using a track sprayer. Controls of water only or Placebo only were also included. The ovicidal efficacy was monitored over a number of days an the number of eggs hatching and caterpillar larvae emerging recorded (Table 22).

[2] = tested on: Lice (L) / Plutella (P) eggs; format: in vivo
Description: Log LD50 is obtained from the observed percentage ovicidal activity by conversion using a modified logit transformation. The observed percentage ovicidal activity values were transformed using the equation:
The additional 5% was used to allow a number to be calculated when 0% and 100% activity was observed. The BA is a crude correction to the log of the concentration at which the compounds were tested. Correlation between BA values and LD50 allows the calculation of Log LD50. […] A number of metal chelating agents with potential for inhibiting the remodelling events associated with thin membrane egg hatching in lice were analysed by comparing their percentage ovicidal activity in lice at different concentrations, their logit calculated pLD50, Pref pLD50, Activity class, clogP and molar refractivity were determined.

[3] = tested on: Plutella xylostella eggs (Waite strain); assay: Plutella xylostella egg hatch (egg dip)
Description: Several hundred Plutella xylostella eggs (Waite strain) were collected, that had been laid over a 24 hour period.
The egg masses were then placed in a humid box at 25° C. until egg hatch. Control eggs were exposed to absolute methanol as described above. At day 6 post laying the eggs were assessed from the different treatments and the percentage of egg hatch determined relative to the control as shown in Table 9.
Batches of Plutella eggs that were laid on either fine cloth or parafilm were dipped in a specific inhibitor solution for between 2-10 seconds, the excess solution was drained by blotting with dry tissue paper. The egg masses were then placed in a humid box at 25 degrees until egg hatch. Control eggs were exposed to absolute methanol as described above or not treated. At day 6 post laying the eggs were assessed from the different treatments and the percentage of egg hatch determined relative to the controls as shown in Tables 10 and 11.
The egg masses were then placed in a humid box at 25 degrees until egg hatch. Control eggs were exposed to absolute ethanol as described above. On day 6 post laying the eggs were assessed from the different treatments and the percentage of egg hatch determined relative to the control.

[4] = 10 mM (200 L/Ha), with wetting agent 0.3 ml/L
[5] = 20 mM (200 L/Ha), with wetting agent 0.3 ml/L

For CC(C)CC(=O)N[C@H](C(=O)N[C@H](C(=O)N[C@@H](CC(C)C)[C@@H](O)CC(=O)N[C@@H](C)C(=O)N[C@@H](CC(C)C)[C@@H](O)CC(=O)O)C(C)C)C(C)C [pepstatin] (Isovaleryl-VV[Sta]A[Sta]-OH), the “protease activity of egg shell washings compared to untreated controls” value [1] was “no apparent reduction in protease activity”.

With CCc1ccc(-c2ccc(CC)cn2)nc1 [5,5′diethyl-2,2′-dipyridyl] the “# LARVAE EMERGED 0-24 h” value (Plutella xylostella eggs; 10 mM (200 L/Ha), No Wetting Agent) was 0 and the “# LARVAE EMERGED 0-24 h” value (Plutella xylostella eggs; [4]) was 0.

For CC(=O)CC(=O)c1ccccc1 [Benzoylacetone], the “Activity class 0 = inactive 1 = low 2 = med 3 = high” value ([2]; 1 mM, Lice/Plutella: ND P) was 0 (A pLD50 value less than 2 is considered inactive (Class 0)) and the “Activity class 0 = inactive 1 = low 2 = med 3 = high” value ([2]; 10 mM, Lice/Plutella: ND P) was 1 (a pLD50 value between 2 and 3 is considered weakly active (Class 1)).

In the case of c1ccc(-c2cc(N3CCOCC3)c3ccccc3n2)nc1 [4-Morpholin-4-yl-2-pyridin-2-yl-quinoline], the “Activity class 0 = inactive 1 = low 2 = med 3 = high” value ([2]; 10 mM, Lice/Plutella: L P) is reported as 0 (A pLD50 value less than 2 is considered inactive (Class 0)).

CC(=O)C1CCCCC1=O (stereo not shown) [2-Acetylcyclohexanone] was tested, and the “Activity class 0 = inactive 1 = low 2 = med 3 = high” value ([2]; 10 mM, Lice/Plutella: ND P) was 0 (A pLD50 value less than 2 is considered inactive (Class 0)).

For CC(=O)NO [Acetohydroxamic acid], the “Activity class 0 = inactive 1 = low 2 = med 3 = high” value ([2]; 10 mM, Lice/Plutella: ND P) was 0 (A pLD50 value less than 2 is considered inactive (Class 0)).

With Cc1cc(C)cc(C(=O)CC(=O)c2cc(C)cc(C)c2)c1 [1,3-Bis-(3,5-dimethyl-phenyl)-propane-1,3-dione] the “Activity class 0 = inactive 1 = low 2 = med 3 = high” value ([2]; 10 mM, Lice/Plutella: ND P) was 0 (A pLD50 value less than 2 is considered inactive (Class 0)).

For c1cnc2ccc3ncccc3c2c1 [4,7-phenanthroline], the “Activity class 0 = inactive 1 = low 2 = med 3 = high” value ([2]; 10 mM, Lice/Plutella: L P) was 0 (A pLD50 value less than 2 is considered inactive (Class 0)).

With CC(C)C[C@H](NC(=O)[C@H]1O[C@@H]1C(=O)O)C(=O)NCCCCN=C(N)N [E-64] the “protease activity of egg shell washings compared to untreated controls” value [1] was “no apparent reduction in protease activity”.

For O=C(CC(=O)C(F)(F)F)c1ccccc1 [4,4,4-Trifluoro-1-phenyl-butane-1,3-dione], the “Activity class 0 = inactive 1 = low 2 = med 3 = high” value ([2]; 10 mM, Lice/Plutella: L P) was 0 (A pLD50 value less than 2 is considered inactive (Class 0)).

With O=C(CC(=O)c1cccnc1)c1cccnc1 [1,3-dipyridin-3-yl-propane-1,3-dione] the “Activity class 0 = inactive 1 = low 2 = med 3 = high” value ([2]; 10 mM, Lice/Plutella: ND P) was 0 (A pLD50 value less than 2 is considered inactive (Class 0)).

With COc1ccc(C(=O)CC(=O)c2ccc(C(C)(C)C)cc2)cc1 [1-(4-tert-butylphenyl)-3-(4-methoxyphenyl)-propane-1,3-dione] the “Activity class 0 = inactive 1 = low 2 = med 3 = high” value ([2]; 10 mM, Lice/Plutella: L P) was 0 (A pLD50 value less than 2 is considered inactive (Class 0)).

For CC(C)(C)c1ccc(C(=O)CC(=O)c2ccc(C(C)(C)C)cc2)cc1 [1,3-Bis-(4-tert-butyl-phenyl)-propane-1,3-dione], the “Activity class 0 = inactive 1 = low 2 = med 3 = high” value ([2]; 10 mM, Lice/Plutella: ND P) was 0 (A pLD50 value less than 2 is considered inactive (Class 0)).

With c1ccc(-c2ccc3ccccc3n2)nc1 [2-(2-pyridinyl)quinoline] the “Activity class 0 = inactive 1 = low 2 = med 3 = high” value ([2]; 10 mM, Lice/Plutella: P) was 1 (a pLD50 value between 2 and 3 is considered weakly active (Class 1)) and the “% Inhibition of egg hatch relative to control” value ([3]; 10 mM, Example 18, eggs on fine cloth dipped approximately 2 seconds, day 6 post laying) was “able to inhibit”.

N[C@@H]1CCCC[C@H]1O (relative stereo) [Trans-2-aminocyclohexanol] was tested, and the “Activity class 0 = inactive 1 = low 2 = med 3 = high” value ([2]; 10 mM, Lice/Plutella: ND P) was 0 (A pLD50 value less than 2 is considered inactive (Class 0)).

O=S(=O)(F)Cc1ccccc1 [PMSF] was tested, and the “protease activity of egg shell washings compared to untreated controls” value [1] was “no apparent reduction in protease activity”.

COc1ccc(C(=O)CC(=O)c2ccc(OC)cc2)cc1 [1,3-Bis-(4-methoxy-phenyl)-propane-1,3-dione] was tested, and the “Activity class 0 = inactive 1 = low 2 = med 3 = high” value ([2]; 10 mM, Lice/Plutella: ND P) was 0 (A pLD50 value less than 2 is considered inactive (Class 0)).

With COC(=O)CN [Glycine methyl ester] the “Activity class 0 = inactive 1 = low 2 = med 3 = high” value ([2]; 10 mM, Lice/Plutella: ND P) was 0 (A pLD50 value less than 2 is considered inactive (Class 0)).

O=C(CC(=O)c1ccccc1)c1ccccc1 [Dibenzoyl methane] was tested, and the “Activity class 0 = inactive 1 = low 2 = med 3 = high” value ([2]; 10 mM, Lice/Plutella: P) was 1 (a pLD50 value between 2 and 3 is considered weakly active (Class 1)).

c1ccc(Cc2ccccn2)cc1 [2-benzyl-pyridine] was tested, and the “Activity class 0 = inactive 1 = low 2 = med 3 = high” value ([2]; 10 mM, Lice/Plutella: L P) was 0 (A pLD50 value less than 2 is considered inactive (Class 0)).

For O=C(O)CN(CCN(CC(=O)O)CC(=O)O)CC(=O)O [EDTA, ethylenediamine tetraacetic acid], the “protease activity of egg shell washings compared to untreated controls” value [1] was “reduction in protease activity”.

For c1ccc2nc(-c3ccc4ccccc4n3)ccc2c1 [2,2′-biquinoline], the “Activity class 0 = inactive 1 = low 2 = med 3 = high” value ([2]; 10 mM, Lice/Plutella: L P) was 0 (A pLD50 value less than 2 is considered inactive (Class 0)).

With Cc1ccnc(-c2cc(C)ccn2)c1 [4,4′-dimethyl-2,2′-dipyridyl] the “egg hatching of Plutella eggs (Tables 10 and 11)” value ([3]; 10 and 1 mM, cloth or parafilm) was “significantly inhibit”.

In the case of Cc1ccc(-c2ccc(C)cn2)nc1 [5,5′dimethyl-2,2′-dipyridyl], the “# LARVAE EMERGED 0-24 h” value (Plutella xylostella eggs; [4]) is reported as 0, the “# LARVAE EMERGED 24-48 h” value (Plutella xylostella eggs; [4]) is reported as 0 and the “# LARVAE EMERGED 0-24 h” value (Plutella xylostella eggs; [5]) is reported as 0. For the same compound, the “# LARVAE EMERGED 24-48 h” value (Plutella xylostella eggs; [5]) was 0 and the “# LARVAE EMERGED 48-72 h” value (Plutella xylostella eggs; 20 mM (200 L/Ha), with wetting agent 0.3 ml/L, 48-72 h) was 0.
